In patent publication US12415794B2 (Edgewise Therapeutics, Inc., priority 2018, dated 2025):

Key:
[1] = target: T1, cardiac myofibrils (myosin ATPase); experiment: Cardiac Myofibril ATPase Assay (counter screen); format: biochemical; settings: myofibrils 1.0 mg/mL, KCl omitted
T1 construct: frozen myofibril pellets obtained from cardiac tissue; from tissue
Procedure, shortened: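 Frozen cardiac myofibrils at 1.0 mg/mL final, KCl omitted, in a PK-LDH coupled ATPase assay; ADP production tracked as NADH loss by absorbance at 340 nm. Inhibition taken as reduced rate relative to vehicle controls, with IC50 derived.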

[2] = target: skeletal myofibrils (myosin ATPase); experiment: Skeletal Myofibril ATPase Assay; format: biochemical
Procedure, shortened: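 Skeletal myofibril ATPase measured by PK-LDH coupled NADH depletion, absorbance 340 nm read every 1.5-2 min over 45 min. Max−min rate normalized to 1% DMSO vehicle as 100%; IC50 from four-parameter logistic fit with bottom ≥0. Cardiac myofibrils used as counter-screen.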

T1 sequence (P12883 whole entry): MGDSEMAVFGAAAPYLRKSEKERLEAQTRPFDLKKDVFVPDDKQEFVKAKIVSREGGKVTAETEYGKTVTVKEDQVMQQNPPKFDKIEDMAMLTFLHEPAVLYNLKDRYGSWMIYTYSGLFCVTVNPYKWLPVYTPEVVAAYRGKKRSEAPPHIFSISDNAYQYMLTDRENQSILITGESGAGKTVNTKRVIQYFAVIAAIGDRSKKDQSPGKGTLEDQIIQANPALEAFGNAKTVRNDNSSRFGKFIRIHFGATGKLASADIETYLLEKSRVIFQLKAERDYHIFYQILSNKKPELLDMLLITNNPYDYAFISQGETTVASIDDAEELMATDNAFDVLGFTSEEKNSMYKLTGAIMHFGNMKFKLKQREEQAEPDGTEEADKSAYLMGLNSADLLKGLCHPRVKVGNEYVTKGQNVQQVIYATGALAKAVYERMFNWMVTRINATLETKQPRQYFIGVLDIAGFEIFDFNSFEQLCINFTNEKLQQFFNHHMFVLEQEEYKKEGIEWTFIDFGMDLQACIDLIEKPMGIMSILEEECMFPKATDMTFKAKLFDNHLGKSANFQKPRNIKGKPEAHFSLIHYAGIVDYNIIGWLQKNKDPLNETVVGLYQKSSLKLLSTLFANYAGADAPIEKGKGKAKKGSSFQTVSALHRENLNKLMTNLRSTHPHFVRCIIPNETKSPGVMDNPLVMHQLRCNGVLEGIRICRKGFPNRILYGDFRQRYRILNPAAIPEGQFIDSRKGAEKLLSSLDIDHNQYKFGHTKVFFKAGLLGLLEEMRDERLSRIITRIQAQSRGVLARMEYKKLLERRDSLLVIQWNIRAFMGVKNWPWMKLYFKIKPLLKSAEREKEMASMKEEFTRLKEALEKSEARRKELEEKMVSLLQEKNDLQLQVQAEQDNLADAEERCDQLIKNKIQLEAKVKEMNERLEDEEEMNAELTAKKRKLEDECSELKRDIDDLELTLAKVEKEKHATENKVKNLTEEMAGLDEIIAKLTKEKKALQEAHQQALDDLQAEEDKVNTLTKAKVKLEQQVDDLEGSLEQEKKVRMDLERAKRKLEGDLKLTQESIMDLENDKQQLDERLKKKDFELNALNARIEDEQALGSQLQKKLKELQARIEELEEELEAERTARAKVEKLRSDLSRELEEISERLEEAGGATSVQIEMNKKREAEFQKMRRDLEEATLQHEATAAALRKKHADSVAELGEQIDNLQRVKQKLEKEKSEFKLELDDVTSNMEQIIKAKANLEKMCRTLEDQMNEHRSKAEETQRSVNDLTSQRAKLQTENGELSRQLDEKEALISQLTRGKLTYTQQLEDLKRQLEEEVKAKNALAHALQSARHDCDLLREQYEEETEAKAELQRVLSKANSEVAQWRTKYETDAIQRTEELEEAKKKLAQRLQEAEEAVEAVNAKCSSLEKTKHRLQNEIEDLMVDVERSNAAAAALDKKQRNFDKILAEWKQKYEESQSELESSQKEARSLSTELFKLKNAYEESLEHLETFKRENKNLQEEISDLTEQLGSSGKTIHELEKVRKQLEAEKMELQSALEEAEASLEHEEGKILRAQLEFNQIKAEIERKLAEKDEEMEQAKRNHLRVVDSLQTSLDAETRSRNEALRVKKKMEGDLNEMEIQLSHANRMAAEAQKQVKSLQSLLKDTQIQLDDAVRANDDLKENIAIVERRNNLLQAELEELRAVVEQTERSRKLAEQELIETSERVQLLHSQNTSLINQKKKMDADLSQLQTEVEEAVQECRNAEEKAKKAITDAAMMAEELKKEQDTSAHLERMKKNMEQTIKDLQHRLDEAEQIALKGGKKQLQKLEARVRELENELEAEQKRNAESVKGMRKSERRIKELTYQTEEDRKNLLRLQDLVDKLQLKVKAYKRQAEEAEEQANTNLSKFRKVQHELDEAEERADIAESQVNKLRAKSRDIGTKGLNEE
T1 sequence (P08590 whole entry partner): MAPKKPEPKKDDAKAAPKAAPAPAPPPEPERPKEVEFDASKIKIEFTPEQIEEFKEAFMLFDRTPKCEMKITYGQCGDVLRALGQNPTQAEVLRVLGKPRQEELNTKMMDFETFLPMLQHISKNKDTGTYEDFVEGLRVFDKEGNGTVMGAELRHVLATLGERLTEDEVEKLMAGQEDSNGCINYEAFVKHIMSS
T1 sequence (P10916 whole entry partner): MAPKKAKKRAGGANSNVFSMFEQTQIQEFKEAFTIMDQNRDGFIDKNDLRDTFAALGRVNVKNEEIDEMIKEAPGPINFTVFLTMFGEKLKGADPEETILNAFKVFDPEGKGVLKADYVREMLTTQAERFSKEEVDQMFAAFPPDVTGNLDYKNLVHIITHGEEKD

SMILES	IC50 ([1]; Table 5C)	IC50 ([2]; Table 4C)	further results
COc1ccc(-c2ccc(=O)n(CC(=O)NCC3CCCCC3)n2)cc1 [IIIa-4]	> 100 µM	< 10 µM	
O=C(Cn1nc(-c2ccc3c(c2)OCCO3)ccc1=O)Nc1ccccc1F [IIIb-17, 2-(3-(2,3-dihydrobenzo[b][1,4]dioxin-6-yl)-6-oxopyridazin-1(6H)-yl)-N-(2-fluorophenyl)acetamide]	> 100 µM	< 10 µM	
O=C(Cn1nc(-c2ccc(OCC(F)(F)F)cc2)ccc1=O)NCc1ccc(O)nc1 [II-20, N-((6-hydroxypyridin-3-yl)methyl)-2-(6-oxo-3-(4-(2,2,2-trifluoroethoxy)phenyl)pyridazin-1(6H)-yl)acetamide]			IC50 ([1]; Table 5B): > 100 µM; IC50 ([2]; Table 4B): > 100 µM
COc1ccc(-c2ccc(=O)n(CC(=O)Nc3ncccc3C)n2)cc1 [IIIb-27, 2-(3-(4-methoxyphenyl)-6-oxopyridazin-1(6H)-yl)-N-(3-methylpyridin-2-yl)acetamide]	> 100 µM	10 to 100 µM	
O=C(Cn1nc(-c2ccc(OC(F)F)nc2)ccc1=O)NCc1ccccc1Cl [Compound I-69, N-(2-chlorobenzyl)-2-(3-(6-(difluoromethoxy)pyridin-3-yl)-6-oxopyridazin-1(6H)-yl)acetamide]			IC50 ([1]; Table 5A): > 100 µM; IC50 ([2]; Table 4A): < 10 µM
COc1ccc(-c2ccc(=O)n(CC(=O)NC3CC3)n2)c(F)c1 [IIIb-58, N-cyclopropyl-2-(3-(2-fluoro-4-methoxyphenyl)-6-oxopyridazin-1(6H)-yl)acetamide]	> 100 µM	> 100 µM	
O=C(Cn1nc(-c2ccccc2)ccc1=O)Nc1cccc2[nH]ccc12 [IIIc-50, N-(1H-indol-4-yl)-2-(6-oxo-3-phenylpyridazin-1(6H)-yl)acetamide]	> 100 µM	10 to 100 µM	
O=C(Cn1nc(-c2ccc(NC34CC(C3)C4)nc2)ccc1=O)NC1CCC1 [Compound I-54, 2-(3-(6-(bicyclo[1.1.1]pentan-1-ylamino)pyridin-3-yl)-6-oxopyridazin-1(6H)-yl)-N-cyclobutylacetamide]			IC50 ([1]; Table 5A): > 100 µM; IC50 ([2]; Table 4A): < 10 µM
COc1ccc(-c2ccc(=O)n(CC(=O)NCCC(C)C)n2)cc1 [IIIb-48, N-isopentyl-2-(3-(4-methoxyphenyl)-6-oxopyridazin-1(6H)-yl)acetamide]	> 100 µM	> 100 µM	
CC[C@@H](C)NC(=O)Cn1nc(-c2ccc(OC(F)F)nc2)ccc1=O [Compound I-66, (R)-N-(sec-butyl)-2-(3-(6-(difluoromethoxy)pyridin-3-yl)-6-oxopyridazin-1(6H)-yl)acetamide]			IC50 ([1]; Table 5A): > 100 µM; IC50 ([2]; Table 4A): < 10 µM
CC(C)(C)NC(=O)Cn1nc(-c2ccc(OC(F)F)cc2)ccc1=O [II-16, N-(tert-butyl)-2-(3-(4-(difluoromethoxy)phenyl)-6-oxopyridazin-1(6H)-yl)acetamide]			IC50 ([1]; Table 5B): > 100 µM; IC50 ([2]; Table 4B): 10 to 100 µM
COc1ccc(-c2ccc(=O)n(CC(=O)NC(C)CCc3ccccc3)n2)cc1 (stereo not shown) [IIIb-30, 2-(3-(4-methoxyphenyl)-6-oxopyridazin-1(6H)-yl)-N-(4-phenylbutan-2-yl)acetamide]	10 to 100 µM	10 to 100 µM	
COc1ccccc1NC(=O)Cn1nc(-c2ccccc2)ccc1=O [IIIc-58, N-(2-methoxyphenyl)-2-(6-oxo-3-phenylpyridazin-1(6H)-yl)acetamide]	> 100 µM	10 to 100 µM	
CC(C)c1cccc(NC(=O)Cn2nc(-c3ccc4c(c3)OCCCO4)ccc2=O)c1 [IIIb-5, 2-(3-(3,4-dihydro-2H-benzo[b][1,4]dioxepin-7-yl)-6-oxopyridazin-1(6H)-yl)-N-(3-isopropylphenyl) acetamide]	10 to 100 µM	< 10 µM	
COc1ccc(-c2ccc(=O)n(CC(=O)Nc3ccc(Cl)cc3Cl)n2)c(F)c1 [IIIb-35, N-(2,4-dichlorophenyl)-2-(3-(2-fluoro-4-methoxyphenyl)-6-oxopyridazin-1(6H)-yl)acetamide]	> 100 µM	10 to 100 µM	
O=C(Cn1nc(-c2ccc3c(c2)OCCCO3)ccc1=O)NC1CCCCCC1 [IIIb-24, N-cycloheptyl-2-(3-(3,4-dihydro-2H-benzo[b][1,4]dioxepin-7-yl)-6-oxopyridazin-1(6H)-yl)acetamide]	> 100 µM	10 to 100 µM	
COc1ccc(-c2ccc(=O)n(CC(=O)NC3CCCCC3)n2)cc1 [IIIb-41, N-cyclohexyl-2-(3-(4-methoxyphenyl)-6-oxopyridazin-1(6H)-yl)acetamide]	> 100 µM	> 100 µM	
O=C(Cn1nc(-c2ccccc2)ccc1=O)NCCC1=CCCCC1 [IIIc-48, N-(2-(cyclohex-1-en-1-yl)ethyl)-2-(6-oxo-3-phenylpyridazin-1(6H)-yl)acetamide]	> 100 µM	< 10 µM	
COc1ccc(-c2ccc(=O)n(CC(=O)NCCc3ccc(OC)c(OC)c3)n2)cc1 [IIIb-51, N-(3,4-dimethoxyphenethyl)-2-(3-(4-methoxyphenyl)-6-oxopyridazin-1(6H)-yl)acetamide]	> 100 µM	> 100 µM	

SMILES	IC50 ([1]; Table 5C)	IC50 ([2]; Table 4C)	further results
COc1ccc(-c2ccc(=O)n(CC(=O)NCc3ccccc3C)n2)cc1 [IIIa-16, 2-(3-(4-methoxyphenyl)-6-oxopyridazin-1(6H)-yl)-N-(2-methylbenzyl) acetamide]	> 100 µM	< 10 µM	
COc1ccc(-c2ccc(=O)n(CC(=O)NC(C)C)n2)c(F)c1 [IIIb-19, 2-(3-(2-fluoro-4-methoxyphenyl)-6-oxopyridazin-1(6H)-yl)-N-isopropylacetamide]	> 100 µM	10 to 100 µM	
CCNC(=O)Cn1nc(-c2ccc(OC(F)(F)F)cc2)ccc1=O [II-5, N-ethyl-2-(6-oxo-3-(4-(trifluoromethoxy)phenyl)pyridazin-1(6H)-yl)acetamide]			IC50 ([1]; Table 5B): > 100 µM; IC50 ([2]; Table 4B): < 10 µM
CC(C)Oc1ccc(-c2ccc(=O)n(CC(=O)NCc3ccccc3Cl)n2)cc1 [IIIa-2, N-(2-chlorobenzyl)-2-(3-(4-isopropoxyphenyl)-6-oxopyridazin-1(6H)-yl)acetamide]	> 100 µM	< 10 µM	
CCc1cccc(NC(=O)Cn2nc(-c3ccc(C)cc3)ccc2=O)c1 [IIIc-1, N-(3-ethylphenyl)-2-(6-oxo-3-(p-tolyl)pyridazin-1(6H)-yl)acetamide]	> 100 µM	< 10 µM	
CCNC(=O)Cn1nc(-c2ccc(NC3CCC3)nc2)ccc1=O [Compound I-62, 2-(3-(6-(cyclobutylamino)pyridin-3-yl)-6-oxopyridazin-1(6H)-yl)-N-ethylacetamide]			IC50 ([1]; Table 5A): > 100 µM; IC50 ([2]; Table 4A): < 10 µM
CCNC(=O)Cn1nc(-c2ccc(OCC(F)F)cc2)ccc1=O [II-7, 2-(3-(4-(2,2-difluoroethoxy)phenyl)-6-oxopyridazin-1(6H)-yl)-N-ethylacetamide]			IC50 ([1]; Table 5B): 10 to 100 µM; IC50 ([2]; Table 4B): < 10 µM
CC(C)CNC(=O)Cn1nc(-c2ccc(Cl)cc2)ccc1=O [IIIc-35, 2-(3-(4-chlorophenyl)-6-oxopyridazin-1(6H)-yl)-N-isobutylacetamide]	> 100 µM	10 to 100 µM	
O=C(Cn1nc(-c2ccccc2)ccc1=O)NC1(c2ccccc2)CCC1 [IIIc-51, 2-(6-oxo-3-phenylpyridazin-1(6H)-yl)-N-(1-phenylcyclobutyl)acetamide]	> 100 µM	< 10 µM	
COc1ccc(-c2ccc(=O)n(CC(=O)Nc3cccc4[nH]ccc34)n2)c(F)c1 [IIIb-2, 2-(3-(2-fluoro-4-methoxyphenyl)-6-oxopyridazin-1(6H)-yl)-N-(1H-indol-4-yl)acetamide]	> 100 µM	< 10 µM	
COc1ccc(-c2ccc(=O)n(CC(=O)NC(C)(C)c3ccccc3)n2)cc1 [IIIa-9, 2-(3-(4-methoxyphenyl)-6-oxopyridazin-1(6H)-yl)-N-(2-phenylpropan-2-yl)acetamide]	> 100 µM	< 10 µM	
O=C(Cn1nc(-c2ccc(OCC(F)(F)F)cc2)ccc1=O)N1CCC1c1ccccc1 (stereo not shown) [II-23, 2-(2-oxo-2-(2-phenylazetidin-1-yl)ethyl)-6-(4-(2,2,2-trifluoroethoxy)phenyl)pyridazin-3(2H)-one]			IC50 ([1]; Table 5B): > 100 µM; IC50 ([2]; Table 4B): < 10 µM
CCCNC(=O)Cn1nc(-c2ccc(OC(F)F)cc2)ccc1=O [II-12, 2-(3-(4-(difluoromethoxy)phenyl)-6-oxopyridazin-1(6H)-yl)-N-propylacetamide]			IC50 ([1]; Table 5B): > 100 µM; IC50 ([2]; Table 4B): 10 to 100 µM
CCNC(=O)Cn1nc(-c2ccc(N(C)C3CCC3)nc2)ccc1=O [Compound I-61, 2-(3-(6-(cyclobutyl(methyl)amino)pyridin-3-yl)-6-oxopyridazin-1(6H)-yl)-N-ethylacetamide]			IC50 ([1]; Table 5A): 10 to 100 µM; IC50 ([2]; Table 4A): < 10 µM
CCNC(=O)Cn1nc(-c2ccc(OC(C)C)nc2)ccc1=O [Compound I-27, N-ethyl-2-(3-(6-isopropoxypyridin-3-yl)-6-oxopyridazin-1(6H)-yl)acetamide]			IC50 ([1]; Table 5A): > 100 µM; IC50 ([2]; Table 4A): > 100 µM
CCNC(=O)Cn1nc(-c2ccc(C3CC3)cc2)ccc1=O [IIIa-19]	> 100 µM	< 10 µM	
COc1ccc(-c2ccc(=O)n(CC(=O)NCc3ccccc3Cl)n2)c(C)c1 [IIIa-22, N-(2-chlorobenzyl)-2-(3-(4-methoxy-2-methylphenyl)-6-oxopyridazin-1(6H)-yl)acetamide]	> 100 µM	10 to 100 µM	
O=C(Cn1nc(-c2ccccc2)ccc1=O)Nc1ccccc1C(F)(F)F [IIIc-52, 2-(6-oxo-3-phenylpyridazin-1(6H)-yl)-N-(2-(trifluoromethyl)phenyl)acetamide]	> 100 µM	10 to 100 µM	
CCNC(=O)Cn1nc(-c2ccc(NC34CC(C3)C4)nc2)ccc1=O [Compound I-36, 2-(3-(6-(bicyclo[1.1.1]pentan-1-ylamino)pyridin-3-yl)-6-oxopyridazin-1(6H)-yl)-N-ethylacetamide]			IC50 ([1]; Table 5A): > 100 µM; IC50 ([2]; Table 4A): < 10 µM
